Measurements taken from ChEMBL document CHEMBL1125278, “Novel cerebroprotective agents with central nervous system stimulating activity. 2. Synthesis and pharmacology of the 1-(acylamino)-7-hydroxyindan derivatives” (1991).
“And” between values parts separate entries of the source, which are not always exact repeats. Identical values can stand only once.

Assays:
Mus musculus [1] = assay: Time of recovery of spontaneous movement (SMT) in seconds was measured after administration of 10 mg/kg intraperitoneally in mice for the promotional effect on recovery from coma.; type: functional; details: route intraperitoneal
Mus musculus [2] = assay: Time of recovery of righting reflux (RRT) in seconds was measured after administration of 100 mg/kg intraperitoneally in mice for the promotional effect on recovery from coma.; type: functional; details: route intraperitoneal
Mus musculus [3] = assay: Time of recovery of spontaneous movement (SMT) in seconds was measured after administration of 100 mg/kg intraperitoneally in mice for the promotional effect on recovery from coma.; type: functional; details: route intraperitoneal
Mus musculus [4] = assay: Time of recovery of spontaneous movement (SMT) in seconds was measured after administration of 30 mg/kg intraperitoneally in mice for the promotional effect on recovery from coma.; type: functional; details: route intraperitoneal
Mus musculus [5] = assay: Time of recovery of righting reflux (RRT) in seconds was measured after administration of 30 mg/kg intraperitoneally in mice for the promotional effect on recovery from coma.; type: functional; details: route intraperitoneal
Mus musculus [6] = assay: Time of recovery of righting reflux (RRT) in seconds was measured after administration of 40 mg/kg orally in mice for the promotional effect on recovery from coma.; type: functional; details: route oral
Mus musculus [7] = assay: Antihypoxic effect by the ratio of survival time (SVT) of test mice to that of control group at a dose of 40 mg/kg administered intraperitoneally.; type: functional; details: route intraperitoneal
Mus musculus [8] = assay: Time of recovery of spontaneous movement (SMT) in seconds was measured after administration of 40 mg/kg orally in mice for the promotional effect on recovery from coma.; type: functional; details: route oral
Mus musculus [9] = assay: Antihypoxic effect by the ratio of survival time (SVT) of test mice to that of control group at a dose of 10 mg/kg administered intraperitoneally.; type: functional; details: route intraperitoneal
Mus musculus [10] = assay: Time of recovery of righting reflux (RRT) in seconds was measured after administration of 10 mg/kg intraperitoneally in mice for the promotional effect on recovery from coma.; type: functional; details: route intraperitoneal
Mus musculus [11] = assay: Antihypoxic effect by the ratio of survival time (SVT) of test mice to that of control group at a dose of 20 mg/kg administered intraperitoneally.; type: functional; details: route intraperitoneal
Mus musculus [12] = assay: Compound was tested for the anesthetic effect and the sleeping time (ST) was recorded at a dose of 10 mg/kg administered intraperitoneally.; type: functional; details: route intraperitoneal
Mus musculus [13] = assay: Spontaneous movement (SMT) in seconds, was measured after oral administration of 30 mg/kg in mice to test for promoting effects on recovery from coma.; type: functional
Mus musculus [14] = assay: Time of recovery of righting reflux (RRT) in seconds was measured after oral administration of 30 mg/kg in mice for the promotional effect on recovery from coma.; type: functional
Mus musculus [15] = assay: Antihypoxic effect tested by the ratio of survival time (SVT) of test mice to that of control group, dosed intraperitoneally at 30 mg/kg; type: functional; details: route intraperitoneal
Mus musculus [16] = assay: Antihypoxic effect tested by the ratio of survival time (SVT) of test mice to that of control group, dosed orally 30 mg/kg; type: functional; details: route oral
Mus musculus [17] = assay: Time of recovery of spontaneous movement (SMT) in seconds was measured after administration of 10 mg/kg orally in mice for the promotional effect on recovery from coma.; type: functional; details: route oral
Mus musculus [18] = assay: Time of recovery of spontaneous movement (SMT) in seconds was measured after administration of 1 mg/kg orally in mice for the promotional effect on recovery from coma.; type: functional; details: route oral
Mus musculus [19] = assay: Time of recovery of righting reflux (RRT) in seconds was measured after oral administration of 3 mg/kg in mice for the promotional effect on recovery from coma.; type: functional
Mus musculus [20] = assay: Time of recovery of righting reflux (RRT) in seconds was measured after oral administration of 10 mg/kg in mice for the promotional effect on recovery from coma.; type: functional
Mus musculus [21] = assay: Time of recovery of righting reflux (RRT) in seconds was measured after oral administration of 1 mg/kg in mice for the promotional effect on recovery from coma.; type: functional
Mus musculus [22] = assay: Time of recovery of spontaneous movement (SMT) in seconds was measured after administration of 3 mg/kg orally in mice for the promotional effect on recovery from coma.; type: functional; details: route oral
Mus musculus [23] = assay: Antihypoxic effect by the survival time (SVT) in mice at a dose of 3 mg/kg administered intraperitoneally.; type: functional; details: route intraperitoneal
Mus musculus [24] = assay: Compound was tested for the anesthetic effect and the sleeping time (ST) was recorded at a dose of 3 mg/kg administered subcutaneously.; type: functional; details: route subcutaneous
Mus musculus [25] = assay: Antihypoxic effect by the ratio of survival time (SVT) of test mice to that of control group at a dose of 30 mg/kg administered subcutaneously.; type: functional; details: route subcutaneous
Mus musculus [26] = assay: Antihypoxic effect by the survival time (SVT) in mice at a dose of 30 mg/kg administered intraperitoneally.; type: functional; details: route intraperitoneal
Mus musculus [27] = assay: Time of recovery of spontaneous movement (SMT) in seconds was measured after administration of 100 mg/kg orally in mice for the promotional effect on recovery from coma.; type: functional
Mus musculus [28] = assay: Antihypoxic effect by the ratio of survival time (SVT) of test mice to that of control group at a dose of 100 mg/kg administered intraperitoneally.; type: functional
Mus musculus [29] = assay: Antihypoxic effect by the ratio of survival time (SVT) of test mice to that of control group at a dose of 100 mg/kg administered orally.; type: functional, organism-based; design: dose 100 mg/kg
Mus musculus [30] = assay: Time of recovery of righting reflux (RRT) in seconds was measured after administration of 100 mg/kg orally in mice for the promotional effect on recovery from coma.; type: functional
Mus musculus [31] = assay: Time of recovery of righting reflux (RRT) in seconds was measured after administration of 0.3 mg/kg orally in mice for the promotional effect on recovery from coma.; type: functional; details: route oral
Mus musculus [32] = assay: Time of recovery of spontaneous movement (SMT) in seconds was measured after administration of 0.3 mg/kg orally in mice for the promotional effect on recovery from coma.; type: functional; details: route oral
Mus musculus [33] = assay: Time of recovery of righting reflux (RRT) in seconds was measured after administration of 3 mg/kg orally in mice for the promotional effect on recovery from coma.; type: functional; details: route oral
Mus musculus [34] = assay: Compound was tested for the anesthetic effect and the sleeping time (ST) was recorded at a dose of 3 mg/kg administered orally.; type: functional
Mus musculus [35] = assay: Time of recovery of righting reflux (RRT) in seconds was measured after administration of 1 mg/kg orally in mice for the promotional effect on recovery from coma.; type: functional; details: route oral
Mus musculus [36] = assay: Compound was tested for the anesthetic effect and the sleeping time (ST) was recorded at a dose of 10 mg/kg administered orally.; type: functional
Mus musculus [37] = assay: Compound was tested for the anesthetic effect and the sleeping time (ST) was recorded at a dose of 1 mg/kg administered orally.; type: functional
Mus musculus [38] = assay: Antihypoxic effect by the survival time (SVT) in mice at a dose of 30 mg/kg administered orally.; type: functional

## CCCC(C)C1(CC)C(=O)N=C([O-])NC1=O.[Na+] (configuration not stated) [PENTOBARBITAL SODIUM]
Mus musculus [1]
  SMT: 176.3 s
Mus musculus [2]
  RRT: 494 s
Mus musculus [3]
  SMT: 283 s
Mus musculus [4]
  SMT: 283 s
Mus musculus [5]
  RRT: 494 s
Mus musculus [6]
  RRT: 494 s
Mus musculus [7]
  SVT: 306.7% and 443.6%
Mus musculus [8]
  SMT: 283 s
Mus musculus [9]
  SVT: 134.9%
Mus musculus [10]
  RRT: 175.5 s
Mus musculus [11]
  SVT: 218.5%
Mus musculus [12]
  ST: 133 s

## CCC(C)c1cc(C)c2c(c1O)C(NC(=O)CN1CCN(c3cccc(Cl)c3Cl)CC1)CC2 (configuration not stated)
Mus musculus [13]
  SMT: 117.4 s
Mus musculus [14]
  RRT: 98 s
Mus musculus [15]
  SVT: 122.4%
Mus musculus [16]
  SVT: 119.2%

## Cc1cc(C)c2c(c1O)C(N)C(C)(C)C2 (configuration not stated)
Mus musculus [17]
  SMT: 62.5 s
Mus musculus [18]
  SMT: 92.3 s
Mus musculus [13]
  SMT: 42 s
Mus musculus [19]
  RRT: 66.2 s
Mus musculus [14]
  RRT: 37.2 s
Mus musculus [20]
  RRT: 54.8 s
Mus musculus [21]
  RRT: 62.8 s
Mus musculus [22]
  SMT: 105.8 s
Mus musculus [23]
  SVT: 156.2%
Mus musculus [24]
  ST: 112 s and 82.1 s and 76.1 s
Mus musculus [9]
  SVT: 217%
Mus musculus [15]
  SVT: 298.1%
Mus musculus [16]
  SVT: 142.1%
Mus musculus [25]
  SVT: 298.2%

## CCCCCCCCCCC(=O)NC1CCc2c(C)cc(C)c(O)c21 (configuration not stated)
Mus musculus [26]
  SVT: 94.5%

## CCC(C)c1cc(C)c2c(c1O)C(NC(=O)CN1CCN(c3cccc(OC)c3)CC1)CC2 (configuration not stated)
Mus musculus [13]
  SMT: 103.5 s
Mus musculus [14]
  RRT: 99.1 s
Mus musculus [15]
  SVT: 218.5%
Mus musculus [16]
  SVT: 162.3%

## VITAMIN E
Mus musculus [27]
  SMT: 83.5 s
Mus musculus [28]
  SVT: 96.7%
Mus musculus [29]
  SVT: 178%
Mus musculus [30]
  RRT: 92.2 s

## COc1cccc(N2CCN(CC(=O)NC3c4c(O)c(C)cc(C)c4CC3(C)C)CC2)c1 (configuration not stated)
Mus musculus [18]
  SMT: 56.2 s
Mus musculus [31]
  RRT: 72.7 s
Mus musculus [32]
  SMT: 66.5 s
Mus musculus [13]
  SMT: 46 s
Mus musculus [14]
  RRT: 48.3 s
Mus musculus [33]
  RRT: 43.6 s
Mus musculus [22]
  SMT: 45.3 s
Mus musculus [23]
  SVT: 153.5%
Mus musculus [34]
  ST: 84.8 s
Mus musculus [9]
  SVT: 176.4%
Mus musculus [35]
  RRT: 58 s
Mus musculus [15]; 30 mg/kg
  SVT: 169.1% and 206.7%
Mus musculus [16]
  SVT: 135.4%
Mus musculus [36]
  ST: 71.4 s
Mus musculus [37]
  ST: 92.7 s

## Cc1cc(C)c2c(c1O)C(NC(=O)CN1CCN(c3cccc(Cl)c3)CC1)CC2 (configuration not stated)
Mus musculus [13]
  SMT: 77.4 s
Mus musculus [14]
  RRT: 72.1 s
Mus musculus [38]
  SVT: 99.2%
Mus musculus [28]; route intraperitoneal
  SVT: 168.9%

## CCC(C)c1cc(C)c2c(c1O)C(N)CC2 (configuration not stated)
Mus musculus [13]
  SMT: 48.9 s
Mus musculus [14]
  RRT: 44.2 s
Mus musculus [16]
  SVT: 166.5%
Mus musculus [25]
  SVT: 276.5%
